The text below walks through data of ChEMBL document CHEMBL5724914, “Linking interpersonal differences in gut microbiota composition and drug biotransformation activity” (2024).

Series [1] can be described thus: The drug is tested on Z-011 corresponding to mouse gut metagenome with ENA study accession number: PRJEB37062 and ENA sample accession number: ERS12561811 for biotransformation under anaerobic condition. The drug concentrations were measured over 9 timepoints collected between 0 and 24 hours of incubation by liquid-chromatography-coupled mass spectrometry (LC–MS). Particulars: 2 µM.

Series [2] in a line: The drug is tested on WLS-069 corresponding to human gut metagenome with ENA study accession number: PRJEB37062 and ENA sample accession number: ERS12561748 for biotransformation under anaerobic condition. The drug concentrations were measured over 9 timepoints collected between 0 and 24 hours of incubation by liquid-chromatography-coupled mass spectrometry (LC–MS). Particulars: 2 µM.

For series [3] the following is noted: human gut metagenome, 24 h, 2 µM.
For series [4] the following is noted: human gut metagenome, 24 h, 2 µM. The source holds these as a separate data set.
Series [5] can be described thus: The drug is tested on Z-012 corresponding to metagenome with ENA study accession number: PRJEB37062 and ENA sample accession number: ERS12561812 for biotransformation under anaerobic condition. The drug concentrations were measured over 9 timepoints collected between 0 and 24 hours of incubation by liquid-chromatography-coupled mass spectrometry (LC–MS). The settings on record: 2 µM.

Series [6] is described as follows: The drug is tested on WLS-220 corresponding to human gut metagenome with ENA study accession number: PRJEB37062 and ENA sample accession number: ERS12561769 for biotransformation under anaerobic condition. The drug concentrations were measured over 9 timepoints collected between 0 and 24 hours of incubation by liquid-chromatography-coupled mass spectrometry (LC–MS). The settings on record: 2 µM.

The nature of series [7]: The drug is tested on Z-024 corresponding to pig gut metagenome with ENA study accession number: PRJEB37062 and ENA sample accession number: ERS12561823 for biotransformation under anaerobic condition. The drug concentrations were measured over 9 timepoints collected between 0 and 24 hours of incubation by liquid-chromatography-coupled mass spectrometry (LC–MS). The settings on record: 2 µM.

Series [8] in a line: The drug is tested on WLS-052 corresponding to human gut metagenome with ENA study accession number: PRJEB37062 and ENA sample accession number: ERS12561747 for biotransformation under anaerobic condition. The drug concentrations were measured over 9 timepoints collected between 0 and 24 hours of incubation by liquid-chromatography-coupled mass spectrometry (LC–MS). Particulars: 2 µM.

Series [9] is described as follows: The drug is tested on WLS-082 corresponding to human gut metagenome with ENA study accession number: PRJEB37062 and ENA sample accession number: ERS12561751 for biotransformation under anaerobic condition. The drug concentrations were measured over 9 timepoints collected between 0 and 24 hours of incubation by liquid-chromatography-coupled mass spectrometry (LC–MS). The settings on record: 2 µM.

For series [10] the following is noted: human gut metagenome, 24 h, 2 µM. The source holds these as a separate data set.
A short description of series [11]: The drug is tested on WLS-010 corresponding to human gut metagenome with ENA study accession number: PRJEB37062 and ENA sample accession number: ERS12561743 for biotransformation under anaerobic condition. The drug concentrations were measured over 9 timepoints collected between 0 and 24 hours of incubation by liquid-chromatography-coupled mass spectrometry (LC–MS). The settings on record: 2 µM.

The conditions of series [12]: human gut metagenome, 24 h, 2 µM. This is another data set of the same source.
A short description of series [13]: The drug is tested on Z-020 corresponding to rabbit gut metagenome with ENA study accession number: PRJEB37062 and ENA sample accession number: ERS12561819 for biotransformation under anaerobic condition. The drug concentrations were measured over 9 timepoints collected between 0 and 24 hours of incubation by liquid-chromatography-coupled mass spectrometry (LC–MS). Particulars: 2 µM.

Series [14] is described as follows: The drug is tested on Z-028 corresponding to mouse gut metagenome with ENA study accession number: PRJEB37062 and ENA sample accession number: ERS12561827 for biotransformation under anaerobic condition. The drug concentrations were measured over 9 timepoints collected between 0 and 24 hours of incubation by liquid-chromatography-coupled mass spectrometry (LC–MS). The settings on record: 2 µM.

For series [15] the following is noted: human gut metagenome, 24 h, 2 µM. This is another data set of the same source.
The nature of series [16]: The drug is tested on Z-018 corresponding to pig gut metagenome with ENA study accession number: PRJEB37062 and ENA sample accession number: ERS12561817 for biotransformation under anaerobic condition. The drug concentrations were measured over 9 timepoints collected between 0 and 24 hours of incubation by liquid-chromatography-coupled mass spectrometry (LC–MS). Particulars: 2 µM.

Series [17] in a line: The drug is tested on Z-029 corresponding to rat gut metagenome with ENA study accession number: PRJEB37062 and ENA sample accession number: ERS12561828 for biotransformation under anaerobic condition. The drug concentrations were measured over 9 timepoints collected between 0 and 24 hours of incubation by liquid-chromatography-coupled mass spectrometry (LC–MS). The settings on record: 2 µM.

The conditions of series [18]: human gut metagenome, 24 h, 2 µM. The source holds these as a separate data set.
The conditions of series [19]: human gut metagenome, 24 h, 2 µM. The source holds these as a separate data set.
Series [20] is described as follows: The drug is tested on Z-001 corresponding to mouse gut metagenome with ENA study accession number: PRJEB37062 and ENA sample accession number: ERS12561801 for biotransformation under anaerobic condition. The drug concentrations were measured over 9 timepoints collected between 0 and 24 hours of incubation by liquid-chromatography-coupled mass spectrometry (LC–MS). Particulars: 2 µM.
Also: call rule not given here.

As for `CCCc1nc2c(C)cc(-c3nc4ccccc4n3C)cc2n1Cc1ccc(-c2ccccc2C(=O)O)cc1`, the “Bacterial Biotransformation” value in series [1], in series [2], in series [3], in [4], in series [5] and in series [6] was “Compound metabolized” throughout. Moreover, the “Bacterial Biotransformation” value in [7], in series [8], in series [9], in [10], in series [11] and in [12] was “Compound metabolized” throughout. The “Bacterial Biotransformation” value in series [13] is “Compound metabolized”; in series [14] it was “Compound metabolized”; in series [15] it was “Compound metabolized”; in [16], “Compound metabolized”; in series [17], “Compound NOT metabolized”; in series [18], “Compound metabolized”. Besides, the “Bacterial Biotransformation” value in series [19] and in series [20] was “Compound metabolized” throughout.

As for `Cc1cc2c(cc1S(N)(=O)=O)S(=O)(=O)CCC2`, the “Bacterial Biotransformation” value in [1], in series [2], in series [3], in series [4], in series [5] and in series [6] was “Compound NOT metabolized” throughout. Also, the “Bacterial Biotransformation” value in series [7], in series [8], in series [9], in series [10], in series [11] and in series [12] was “Compound NOT metabolized” in each case. For the same compound, the “Bacterial Biotransformation” value in series [13], in series [14], in [15], in series [16], in series [17] and in series [18] was “Compound NOT metabolized” each time. For the same compound, the “Bacterial Biotransformation” value in [19] and in series [20] was “Compound NOT metabolized” in each case.

With `CN1CC(=O)N2[C@H](c3ccc4c(c3)OCO4)c3[nH]c4ccccc4c3C[C@@H]2C1=O`, the “Bacterial Biotransformation” value in [1] is given as “Compound NOT metabolized”; in series [2], “Compound metabolized”; in series [3], “Compound NOT metabolized”; in series [4], “Compound NOT metabolized”; in [5] it was “Compound metabolized”; in series [6], “Compound metabolized”. Moreover, the “Bacterial Biotransformation” value in series [7], in series [8], in [9], in [10], in series [11] and in series [12] was “Compound metabolized” throughout. Moreover, the “Bacterial Biotransformation” value was “Compound NOT metabolized” in series [13]; “Compound NOT metabolized” in series [14]; “Compound metabolized” in series [15]; “Compound metabolized” in series [16]; “Compound NOT metabolized” in [17]; “Compound metabolized” in [18]. The “Bacterial Biotransformation” value was “Compound metabolized” in series [19] and “Compound NOT metabolized” in series [20].
